Reference: patent US7556938B1, “Nucleic acids encoding potassium channel interactors” (Millennium Pharmaceuticals, Inc., priority 1998, dated 2009)

Columns and labels:
[1] = molecular target: T1, Kv1.1/Kvβ1 (Rattus norvegicus, UniProt P10499); assay: AA modulation of Kv1.1/Kvβ1 current in Xenopus oocytes; type: cell-based; settings: Kv1.1/Kvβ1, 10 μM AA, listed as AA
T1 construct: expressed in transfected cells; host or cells: Xenopus oocytes
Protocol: (§1) Frogs underwent no more than two surgeries and surgeries were performed by well established techniques. Frogs were anesthetized with ice. Total cRNA (1-10 ng) was injected into stage IV Xenopus oocytes that were harvested the previous day. The Xenopus oocytes were incubated in ND96 containing (in mM) 96 NaCl, 2 KCl, 1.8 CaCl2, 1 MgCl2, 5 HEPES, pH 7.6, plus (Gentamycin 50 μg/ml) at 18° C. Xenopus oocytes were studied 3-7 days after injection. The two-electrode voltage-clamp recordings were performed in ND96 solution using a TURBO TEC 03 Clamp Amplifier (ALA Scientific Instruments, Westbury, N.Y.). Both electrodes were filled with 3 M KCl and had electrode resistances ranging from 0.2-1 MOhm. The current signals were filtered at 1000 Hz before transferred on a PC (Gateway, Calif.) using the PULSE software (HEKA, Germany).
(§2) In this example, the foregoing was tested by measuring two alpha/auxiliary complexes: Kv4.3/KChIP1 and Kv1.1/Kvβ1. (Kvβ1, which is one of the classic potassium channel beta subunits, dramatically changes Kv1.1 kinetics). Kv4.3/KChIP and Kv1.1/Kvβ1 were expressed respectively in Xenopus oocytes and their resulting currents were recorded in the presence or absence of […] AA. […] Kinetically, […] was much more sensitive to AA modulation than was Kv1.1/Kvβ1 (Table 4).

[2] = molecular target: T2, Kv1.1 (Rattus norvegicus, UniProt P10499); assay: AA modulation of Kv1.1 current in Xenopus oocytes; type: cell-based; settings: Kv1.1 alone, 10 μM AA
T2 construct: expressed in transfected cells; host or cells: Xenopus oocytes
T2 sequence (P10499 whole entry): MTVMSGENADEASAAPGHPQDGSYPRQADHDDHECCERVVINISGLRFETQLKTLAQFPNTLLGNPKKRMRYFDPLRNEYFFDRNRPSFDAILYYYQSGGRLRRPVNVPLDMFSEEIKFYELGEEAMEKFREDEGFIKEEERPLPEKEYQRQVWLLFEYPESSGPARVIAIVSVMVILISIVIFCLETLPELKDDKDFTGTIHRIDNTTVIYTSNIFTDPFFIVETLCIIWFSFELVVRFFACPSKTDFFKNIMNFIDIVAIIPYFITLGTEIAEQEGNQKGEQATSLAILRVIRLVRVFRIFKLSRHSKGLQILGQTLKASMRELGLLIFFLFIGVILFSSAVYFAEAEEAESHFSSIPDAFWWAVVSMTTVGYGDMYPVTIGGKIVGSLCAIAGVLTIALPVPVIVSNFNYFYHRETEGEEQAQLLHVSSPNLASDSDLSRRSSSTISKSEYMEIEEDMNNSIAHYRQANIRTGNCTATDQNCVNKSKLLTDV
Protocol: as §1, §2

[3] = system: A-current in cultured primary cerebellar granule neurons; assay: Arachidonic acid effects on the A-current in cultured primary cerebellar granule neurons; type: cell-based; settings: 10 μM arachidonic acid, TEA (10 mM) applied, mean±SEM
Protocol: The arachidonic acid effects on the A-current were also investigated in a neuronal system (cultured primary cerebellar granule neurons) where both Kv4 and KChIPs are present. TEA (10 mM) was applied to block a small sustained outward component. Inactivation time constants of the A current in the absence and presence of 10 μM arachidonic acid were 44±5 ms and 21±3 ms (mean±SEM), respectively. The corresponding peak amplitude was reduced from 2.0±0.6 nA to 1.2±0.4 nA.

[4] = molecular target: T3, interaction between N-terminal domain of Kv4.3 and KChIP1 (Rattus norvegicus, UniProt Q62897+Q8R426); assay: Biosensor (Biacore) in vitro binding of KChIP1 to GST-Kv4.3N with and without arachidonic acid; settings: 10 μM arachidonic acid, 1 μM KChIP1
T3 construct: The intracellular N-terminal domain of Kv4.3 was expressed as a GST fusion protein (GST-Kv4.3N); GST (N, cleaved yes); made in house; host or cells: E. coli
T3 sequence (Q62897 1-182 limits assumed): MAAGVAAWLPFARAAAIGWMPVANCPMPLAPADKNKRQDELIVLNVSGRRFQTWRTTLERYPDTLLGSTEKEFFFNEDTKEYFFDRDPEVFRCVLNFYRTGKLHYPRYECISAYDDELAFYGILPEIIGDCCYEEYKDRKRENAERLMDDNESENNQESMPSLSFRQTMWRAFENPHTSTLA
T3 sequence (Q8R426 1-216 isoform Q8R426-2): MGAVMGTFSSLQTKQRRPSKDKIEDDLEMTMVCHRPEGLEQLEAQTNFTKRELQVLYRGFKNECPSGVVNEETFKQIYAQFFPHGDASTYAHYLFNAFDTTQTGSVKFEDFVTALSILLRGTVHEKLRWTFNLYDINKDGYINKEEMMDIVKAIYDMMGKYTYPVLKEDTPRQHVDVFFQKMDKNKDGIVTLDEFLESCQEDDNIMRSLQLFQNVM
Description: The N-terminal domain of rat Kv4.3 was expressed as a GST fusion (GST-Kv4.3N) and purified from E. coli essentially following protocols provided by Amersham Pharmacia Biotech (Piscataway, N.J.). Recombinant rat KChIP1 protein was first expressed and purified as a GST-fusion, then the GST moiety was cleaved using PreScission protease (Amersham Pharmacia Biotech) to give rise to the free KChIP1 protein. Both GST-Kv4.3N and KChIP proteins were >95% pure as estimated by coomassie stain of denaturing gels. In vitro binding assays were performed using a Biacore 3000 from Biacore AB in Uppsala, Sweden. The experiments were performed in phosphate buffered saline (PBS), pH 7.4, with 1 mM CaCl2 and 0.05% polysorbate P-20. Anti-GST antibody (Biacore AB) was coupled to 3 flowcells of a CM-5 chip (Biacore AB) at a level of 2000 resonance units (RUs) using amine coupling. […]
To test the hypothesis that arachidonic acid acts by interfering with the binding between Kv4 and KChIPs, the surface plasmon resonance measurement (Biosensor) was first used to monitor the association and dissociation phases of Kv4-KChIP interaction in the presence and absence of arachidonic acid. The intracellular N-terminal domain of Kv4.3 was expressed as a GST fusion protein (GST-Kv4.3N) and immobilized to the surface of a Biosensor chip. […]

T1 sequence (P10499 whole entry): as the sequence (P10499 whole entry) above

Inactivation time constant (ms ± SEM) [1]: 9 ± 1 ms
Peak amplitude (μA ± SEM) [1]: 14±1 μA
Peak amplitude (μA ± SEM) [2]: 21 ± 3 μA
SMILES: CCCCC/C=C\C/C=C\C/C=C\C/C=C\CCCC(=O)O [arachidonic acid]
Inactivation time constant of the A current [3]: 21 ± 3 ms
peak amplitude of the A current [3]: 1.2±0.4 nA
effect on association and dissociation phase of KChIP1 binding to GST-Kv4.3N [4]: a qualitative difference aws not observed
